Drawing on PubChem BioAssay (NCI), this text covers TGI and GI50 for 13 compounds.

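Tested at 5 concentrations; 48 h exposure; 96-well plates; endpoints linearly interpolated, else capped at highest concentration. Abbreviation: GI50, concentration required for 50% inhibition of growth. TGI: total growth inhibition.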

Test systems include SR leukemia; KM12 colon; OVCAR-8 ovarian; MALME-3M melanoma; A549 NSCLC; M14 melanoma; HOP-62 NSCLC; OVCAR-3 ovarian; TK-10 renal; SNB-75 CNS.
What all share (assay): inhibition of tumour cell growth, NCI panel, 48 h

For the compound `COc1ccc(C(=O)Nc2ccc(O)c(=O)cc2)cc1`, the TGI is 31.4 µM in the experiment with SR leukemia; above 100 µM with KM12 colon; 91.7 µM with OVCAR-8 ovarian; above 100 µM with MALME-3M melanoma; above 100 µM in the experiment on A549 NSCLC; above 100 µM in the experiment with M14 melanoma. Further, the results for the TGI in the experiment on HOP-62 NSCLC, with OVCAR-3 ovarian and in the experiment on TK-10 renal were above 100 µM, 90 µM and above 100 µM, respectively.
Regarding `COc1cc(C(=O)N2CCN(C(=O)c3cc(OC)c(OC)c(OC)c3)C2=S)cc(OC)c1OC`, the GI50 with KM12 colon is 14.2 µM; in the experiment on OVCAR-8 ovarian, 21.9 µM; in the experiment on MALME-3M melanoma, 13.4 µM; in the experiment on A549 NSCLC, 19.9 µM; in the experiment with M14 melanoma, 16.8 µM; in the experiment with HOP-62 NSCLC, 15.2 µM. The results for the GI50 in the experiment on OVCAR-3 ovarian, with TK-10 renal and with SNB-75 CNS were 15.2 µM, 17 µM and 7.1 µM, respectively. Also, the TGI stood at 39.7 µM with KM12 colon; 45.9 µM in the experiment with OVCAR-8 ovarian; 27 µM with MALME-3M melanoma; 56.7 µM with A549 NSCLC; 34 µM in the experiment with M14 melanoma; 38.9 µM in the experiment with HOP-62 NSCLC. Moreover, the TGI in the experiment with OVCAR-3 ovarian was 29.6 µM; in the experiment with TK-10 renal, 37.3 µM; with SNB-75 CNS, 21.6 µM.
Regarding `Cc1cc2c(=O)c3ccccc3[nH]c2c(C(N)=O)c1C`, the TGI in the experiment on KM12 colon, in the experiment with OVCAR-8 ovarian, in the experiment on MALME-3M melanoma, in the experiment with A549 NSCLC, with M14 melanoma and with OVCAR-3 ovarian was above 100 µM throughout. Moreover, the TGI in the experiment with TK-10 renal and in the experiment on SNB-75 CNS was above 100 µM throughout.
On to `CCOC(=O)c1ccc(/C(C)=N/NC(N)=S)cc1`, for which the TGI with OVCAR-8 ovarian, in the experiment on A549 NSCLC, in the experiment with M14 melanoma, in the experiment on HOP-62 NSCLC, in the experiment with OVCAR-3 ovarian and with TK-10 renal was above 100 µM each time. The compound further had a TGI in the experiment with SNB-75 CNS above 100 µM.
Take `COc1cc(OC)c2c(=O)cc(-c3ccc(OC)c(OC)c3OC)oc2c1`: the TGI in the experiment with KM12 colon, with MALME-3M melanoma, in the experiment with A549 NSCLC, with M14 melanoma, with HOP-62 NSCLC and in the experiment on OVCAR-3 ovarian was above 100 µM throughout. For the same compound, the TGI was above 100 µM in the experiment with TK-10 renal and 45.3 µM in the experiment on SNB-75 CNS.
Consider `O=C(OC1CCC(=C2SCCCS2)[C@H]1C1SCCCS1)c1ccccc1` (stereo not given in full), for which the TGI in the experiment on KM12 colon, with OVCAR-8 ovarian, in the experiment on MALME-3M melanoma, in the experiment on A549 NSCLC, in the experiment on M14 melanoma and in the experiment on HOP-62 NSCLC was above 100 µM each time. Further, the TGI in the experiment on OVCAR-3 ovarian and in the experiment with TK-10 renal was above 100 µM each time.
For `CCOC(=O)Nc1cc2c(c(N)n1)N=C(c1ccccc1)CO2`, the GI50 was 0.035 µM in the experiment with SR leukemia; 0.0366 µM with KM12 colon; 0.418 µM with OVCAR-8 ovarian; 5.11 µM with MALME-3M melanoma; 0.167 µM in the experiment with A549 NSCLC; 0.166 µM with M14 melanoma. In addition, the results for the GI50 in the experiment on HOP-62 NSCLC, in the experiment with OVCAR-3 ovarian and in the experiment with TK-10 renal were 0.45 µM, 0.0345 µM and 0.704 µM, respectively. The TGI in the experiment with SR leukemia was 10.1 µM; in the experiment with KM12 colon, 2.11 µM; with OVCAR-8 ovarian it was above 32.9 µM; in the experiment on MALME-3M melanoma, 36.2 µM; in the experiment with A549 NSCLC, 13.8 µM; in the experiment on M14 melanoma, 93 µM. The values for the TGI in the experiment with HOP-62 NSCLC, in the experiment on OVCAR-3 ovarian and in the experiment with TK-10 renal were 24.3 µM, 0.109 µM and 19.3 µM, respectively.
For `O=C(Nc1cccc(Cl)c1)C(=O)C(C(=O)c1ccc2ccccc2c1)C1OC(=O)c2ccccc21` (stereo not given), the TGI with KM12 colon is 60.3 µM; in the experiment on OVCAR-8 ovarian, 68.9 µM; in the experiment with MALME-3M melanoma, 30.8 µM; in the experiment with A549 NSCLC it was above 100 µM; with M14 melanoma, 36.7 µM; with HOP-62 NSCLC, 37.3 µM. In addition, the TGI is 56.6 µM with OVCAR-3 ovarian and 77.4 µM in the experiment with TK-10 renal.
Regarding `COC(=O)C(=Cc1cc(OC)c(OC)c(OC)c1-c1cc2c(cc1C1(C)OCCS1)OCO2)C(=O)OC` (stereo not given), the TGI with SR leukemia was above 100 µM; in the experiment with KM12 colon it was 79.8 µM; in the experiment with OVCAR-8 ovarian, above 100 µM; in the experiment with MALME-3M melanoma it was above 100 µM; with A549 NSCLC, above 100 µM; in the experiment on HOP-62 NSCLC, above 100 µM. Besides, the TGI was 54.6 µM with OVCAR-3 ovarian and above 100 µM in the experiment with TK-10 renal.
Turning to `O=C(Nc1cccc(C(F)(F)F)c1)c1ccc(NC2=C(Cl)C(=O)N(Cc3ccc(Cl)cc3Cl)C2=O)cc1`, the GI50 in the experiment with SR leukemia is 1.83 µM; in the experiment with KM12 colon, 14.6 µM; with OVCAR-8 ovarian, 3.42 µM; in the experiment on A549 NSCLC, 21.6 µM; in the experiment with M14 melanoma it was 15.3 µM; with HOP-62 NSCLC, 18 µM. Also, the GI50 was 15.3 µM with OVCAR-3 ovarian, 15.6 µM in the experiment on TK-10 renal and 14.6 µM in the experiment on SNB-75 CNS. Also, the TGI in the experiment on SR leukemia is 3.93 µM; in the experiment on KM12 colon it was 31.4 µM; in the experiment with OVCAR-8 ovarian, 19.7 µM; in the experiment with A549 NSCLC, 92.4 µM; in the experiment on M14 melanoma, 32.4 µM; in the experiment on HOP-62 NSCLC it was 32.2 µM. In addition, the TGI stood at 30.9 µM in the experiment with OVCAR-3 ovarian, 35.7 µM with TK-10 renal and 33.3 µM in the experiment with SNB-75 CNS.
For the compound `Cc1nc(Nc2ccc(Cl)cc2)sc1C(=O)NNC(=S)NN`, the TGI with KM12 colon is 42.3 µM; in the experiment with OVCAR-8 ovarian it was 43.7 µM; in the experiment on MALME-3M melanoma, 35.5 µM; with A549 NSCLC it was 39.6 µM; in the experiment on M14 melanoma, 35.1 µM; in the experiment on HOP-62 NSCLC, 33 µM. Further, the TGI in the experiment on OVCAR-3 ovarian came out at 39.5 µM; in the experiment with TK-10 renal it was 45.1 µM; in the experiment on SNB-75 CNS, 64.3 µM.
Consider `CN(C)CCC(/C=C/c1ccccc1)=N\Nc1ccccc1`, for which the TGI with KM12 colon turned out to be 13.2 µM; in the experiment with OVCAR-8 ovarian, 23.9 µM; in the experiment on MALME-3M melanoma, 13.1 µM; in the experiment with A549 NSCLC it was 4.21 µM; with M14 melanoma, 13 µM; in the experiment on HOP-62 NSCLC, 8.93 µM. The values for the TGI in the experiment on OVCAR-3 ovarian, with TK-10 renal and in the experiment on SNB-75 CNS were 6.5 µM, 4.61 µM and 13.7 µM, respectively.
As to `N#CC(C(=O)/C(=N\NC(N)=O)C(C#N)c1ccc(Cl)cc1)c1ccc(Cl)cc1` (stereo not given), the TGI with KM12 colon, with OVCAR-8 ovarian, in the experiment on MALME-3M melanoma, with A549 NSCLC, in the experiment on M14 melanoma and with HOP-62 NSCLC was above 100 µM throughout. Also, the TGI with OVCAR-3 ovarian is above 100 µM.
